Reference: patent US8410302B2, “Methoxyimino compounds and fungicide composition comprising same” (Kyung Nong Corporation, priority 2007, dated 2013)
Where two headings read alike, the source gives them in different places.

How the values were obtained:
[1] = test system: Pyricularia oryzae Carvara KA301; assay: whole plant or invertebrate; type: in vivo; details: Pyricularia oryzae, read-out: RCB control value (C.V.)
Botrytis cinerae = assay: Fungicidal activity against cucumber gray mold rot (CGM) disease, control value; type: in vivo; details: Botrytis, read-out: CGM control value (C.V.)
Phytophthora infestans = assay: whole plant or invertebrate; type: in vivo; details: Phytophthora infestans, in Solanum lycopersicum, read-out: TLB control value (C.V.)
Puccinia recondita = assay: Fungicidal activity against wheat leaf rust (WLR) disease, control value; type: in vivo; details: read-out: WLR control value (C.V.)
Erysiphae graminis = assay: Fungicidal activity against barley powdery mildew (BPM) disease, control value; type: in vivo; details: 168 h, read-out: BPM control value (C.V.)
Rhizoctonia solani AG-1 = assay: Fungicidal activity against rice sheath blight (RSB) disease, control value; details: Rhizoctonia solani, AG1, in Oryza sativa, read-out: RSB control value (C.V.)
[2] = Hordeum vulgare, barley powdery mildew

Row | SMILES | pest or weed control at 2 ppm [1] [%] | pest or weed control at 10 ppm [1] [%] | pest or weed control at 50 ppm [1] [%] | pest or weed control at 100 ppm [1] [%] | pest or weed control at 100 ppm (Botrytis cinerae) [%] | pest or weed control at 2 ppm (Phytophthora infestans) [%] | pest or weed control at 10 ppm (Phytophthora infestans) [%] | pest or weed control at 50 ppm (Phytophthora infestans) [%] | pest or weed control at 100 ppm (Phytophthora infestans) [%] | pest or weed control at 2 ppm (Puccinia recondita; Puccinia recondita) [%] | pest or weed control at 10 ppm (Puccinia recondita; Puccinia recondita) [%] | pest or weed control at 50 ppm (Puccinia recondita; Puccinia recondita) [%] | pest or weed control at 100 ppm (Puccinia recondita; Puccinia recondita) [%] | pest or weed control at 2 ppm (Erysiphae graminis) [%] | pest or weed control at 10 ppm (Erysiphae graminis) [%] | pest or weed control at 50 ppm (Erysiphae graminis) [%] | pest or weed control at 2 ppm (Rhizoctonia solani AG-1) [%] | pest or weed control at 10 ppm (Rhizoctonia solani AG-1) [%] | pest or weed control at 50 ppm (Rhizoctonia solani AG-1) [%] | pest or weed control at 100 ppm (Rhizoctonia solani AG-1) [%] | further results
1 | CNC(=O)/C(=N/OC)c1ccccc1COc1ccc(C=C(Cl)Cl)cc1Br [Example 54, (E)-2-(2-((2-bromo-4-(2,2-dichlorovinyl)phenoxy)methyl)phenyl)-2-methoxyimino-N-methylacetamide] | 30 | 90 | 100 | 100 | 65 | 93 | 95 | 100 | 100 | 100 | 100 | 100 | 100 | 100 | 100 | 100 | 90 | 98 | 100 | 100 | pest or weed control at 100 ppm (Erysiphae graminis): 100%
2 | CO/N=C(/C(=O)OC)c1ccccc1COc1ccc(C=C(F)Cl)cc1 [Example 13, methyl-(2E)-2-(2-((4-(2-chloro-2-fluorovinyl)phenoxy)methyl)phenyl)-2-methoxyiminoacetate] | – | – | 70 | 95 | – | – | – | – | 60 | – | – | – | – | – | – | – | – | – | – | 67 | pest or weed control at 100 ppm (Botrytis cinerae; cucumber gray mold rot): 0%; pest or weed control at 50 ppm (Puccinia recondita; wheat leaf rust): 40%; pest or weed control at 100 ppm (Puccinia recondita; wheat leaf rust): 90%; pest or weed control at 100 ppm (Erysiphae graminis; [2]): 75%
3 | CO/N=C(/C(=O)OC)c1ccccc1COc1c(C)cccc1C=C(Cl)Cl [Example 49, methyl-(E)-2-(2-((2-(2,2-dichlorovinyl)-6-methylphenoxy)methyl)phenyl)-2-methoxyiminoacetate] | 93 | 100 | 100 | 100 | – | 97 | 99 | 100 | 100 | – | – | – | – | – | – | – | 95 | 98 | 100 | 100 | pest or weed control at 100 ppm (Botrytis cinerae; cucumber gray mold rot): 30%; pest or weed control at 2 ppm (Puccinia recondita; wheat leaf rust): 100%; pest or weed control at 10 ppm (Puccinia recondita; wheat leaf rust): 100%; pest or weed control at 50 ppm (Puccinia recondita; wheat leaf rust): 100%; pest or weed control at 100 ppm (Puccinia recondita; wheat leaf rust): 100%; pest or weed control at 2 ppm (Erysiphae graminis; [2]): 100%; pest or weed control at 10 ppm (Erysiphae graminis; [2]): 100%; pest or weed control at 50 ppm (Erysiphae graminis; [2]): 100%; pest or weed control at 100 ppm (Erysiphae graminis; [2]): 100%
4 | CNC(=O)/C(=N/OC)c1ccccc1COc1cccc(C=C(Cl)Br)c1 [Example 16, (2E)-2-(2-((3-(2-bromo-2-chlorovinyl)phenoxy)methyl)phenyl)-2-methoxyimino-N-methylacetamide] | 100 | 100 | 100 | 100 | – | 93 | 95 | 100 | 100 | – | – | – | – | – | – | – | 95 | 98 | 100 | 100 | pest or weed control at 100 ppm (Botrytis cinerae; cucumber gray mold rot): 65%; pest or weed control at 2 ppm (Puccinia recondita; wheat leaf rust): 100%; pest or weed control at 10 ppm (Puccinia recondita; wheat leaf rust): 100%; pest or weed control at 50 ppm (Puccinia recondita; wheat leaf rust): 100%; pest or weed control at 100 ppm (Puccinia recondita; wheat leaf rust): 100%; pest or weed control at 2 ppm (Erysiphae graminis; [2]): 100%; pest or weed control at 10 ppm (Erysiphae graminis; [2]): 100%; pest or weed control at 50 ppm (Erysiphae graminis; [2]): 100%; pest or weed control at 100 ppm (Erysiphae graminis; [2]): 100%
5 | CNC(=O)/C(=N/OC)c1ccccc1COc1cc(Br)ccc1C=C(Br)Br [Example 86, (E)-2-(2-((5-bromo-2-(2,2-dibromovinyl)phenoxy)methyl)phenyl)-2-methoxyimino-N-methylacetamide] | 30 | 90 | 100 | 100 | 40 | 70 | 90 | 98 | 100 | 95 | 100 | 100 | 100 | 90 | 100 | 100 | 65 | 98 | 100 | 100 | pest or weed control at 100 ppm (Erysiphae graminis): 100%
6 | CO/N=C(/C(=O)OC)c1ccccc1COc1c(C)cccc1C=C(Br)Br [Example 73, methyl-(E)-2-(2-((2-(2,2-dibromovinyl)-6-methylphenoxy)methyl)phenyl)-2-methoxyiminoacetate] | 70 | 90 | 100 | 100 | 20 | – | 10 | 90 | 100 | 100 | 100 | 100 | 100 | 15 | 60 | 93 | – | – | – | 10 | pest or weed control at 100 ppm (Erysiphae graminis): 95%
7 | CO/N=C(/C(=O)OC)c1ccccc1COc1cccc(C=C(Cl)Br)c1 [Example 15, methyl-(2E)-2-(2-((3-(2-bromo-2-chlorovinyl)phenoxy)methyl)phenyl)-2-methoxyiminoacetate] | 70 | 100 | 100 | 100 | – | – | 10 | 90 | 100 | – | – | – | – | – | – | – | – | – | – | 10 | pest or weed control at 100 ppm (Botrytis cinerae; cucumber gray mold rot): 50%; pest or weed control at 2 ppm (Puccinia recondita; wheat leaf rust): 100%; pest or weed control at 10 ppm (Puccinia recondita; wheat leaf rust): 100%; pest or weed control at 50 ppm (Puccinia recondita; wheat leaf rust): 100%; pest or weed control at 100 ppm (Puccinia recondita; wheat leaf rust): 100%; pest or weed control at 2 ppm (Erysiphae graminis; [2]): 15%; pest or weed control at 10 ppm (Erysiphae graminis; [2]): 60%; pest or weed control at 50 ppm (Erysiphae graminis; [2]): 93%; pest or weed control at 100 ppm (Erysiphae graminis; [2]): 95%
8 | CO/N=C(/C(=O)OC)c1ccccc1COc1ccc(C=C(Br)Br)cc1Br [Example 77, methyl-(E)-2-(2-((2-bromo-4-(2,2-dibromovinyl)phenoxy)methyl)phenyl)-2-methoxyiminoacetate] | 30 | 90 | 100 | 100 | 70 | 70 | 90 | 98 | 100 | 95 | 100 | 100 | 100 | 90 | 100 | 100 | 65 | 98 | 100 | 100 | pest or weed control at 100 ppm (Erysiphae graminis): 100%
9 | CNC(=O)/C(=N/OC)c1ccccc1COc1cc(Br)ccc1C=C(Cl)Cl [Example 62, (E)-2-(2-((5-bromo-2-(2,2-dichlorovinyl)phenoxy)methyl)phenyl)-2-methoxyimino-N-methylacetamide] | 90 | 99 | 100 | 100 | 85 | 99 | 100 | 100 | 100 | 100 | 100 | 100 | 100 | 99 | 100 | 100 | 93 | 100 | 100 | 100 | pest or weed control at 50 ppm (Botrytis cinerae; 50 ppm): 30%; pest or weed control at 100 ppm (Erysiphae graminis): 100%
